Data as given in PubChem BioAssay (NCI).
Several values for one entry are separate records, joined by “and”; a condition that tells them apart may be missing. Identical values can stand only once.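 A five-concentration, 48-hour dose response in 96-well plates underlies each endpoint, interpolated linearly between surrounding concentrations. At the GI50, growth is halved. TGI marks complete inhibition of growth.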

Tested on: MDA-MB-468 breast
Assay: inhibition of tumour cell growth, NCI panel, 48 h

SMILES | GI50 | TGI
O=C(/C(=C\c1c(-c2ccccc2)[nH]c2ccccc12)S(=O)(=O)c1ccccc1)c1ccccc1 | 4.18 µM | > 100 µM
CCCCCCCCCCNC(=O)CI | 2.14 µM | 4.86 µM
NNCCc1ccc(NC(=O)CCCc2ccc(C(=O)Nc3ccccc3N)cc2)cc1 | 10.9 µM | 40.1 µM
N=C(N)c1ccc(-c2ccc(-c3cccs3)s2)cc1 | 0.0564 µM | 1.15 µM
Nc1cc2c(cc1Br)[nH]c(=O)c1ccccc12 | 1.21 µM | 5.41 µM
Cc1ccc(OCCOCCOCCOCCOc2ccc(C)n(O)c2=S)c(=S)n1O | < 0.0174 µM | 5.33 µM
O=C(NCc1ccc(Cn2c(=O)sn(-c3ccccc3)c2=O)cc1)OCc1ccc2cccc(O)c2n1 | 0.552 µM | 2.14 µM
O=C1Nc2ccccc2/C1=C1\CCc2cc(O)ccc21 | 3.33 µM | > 21.8 µM
CC1(C)CN=C(NN=C(/C=C/c2ccc(C(F)(F)F)cc2)/C=C/c2ccc(C(F)(F)F)cc2)NC1 | 1.28 µM | 2.72 µM
CC(C)(C)[Si](C)(C)OC1[C@@H](CNC(=O)NC(=O)CCl)O[C@@H](n2cnc3c(N)ncnc32)[C@H]1O[Si](C)(C)C(C)(C)C (stereo not given in full) | 0.802 µM | 1.71 µM
COc1ccc(/C(C)=C(\c2ccc(OCCN3CCCCCC3)cc2)c2ccc(OC(=O)C3CCCCC3)cc2)cc1 | 0.737 µM | 2.84 µM
Cc1cc(Nc2nc(-c3cn(-c4ccc(Cl)cc4)nn3)nc3ccccc23)n[nH]1 | 10.4 µM | 30.5 µM
OC(c1cc(-c2ccc(C(F)(F)F)cc2)nc(C(F)(F)F)c1)C1CCCCN1 (stereo not given) | 1.61 µM and 1.5 µM | 3.33 µM and 2.83 µM
COc1ccc(-c2nc(-c3cc(OC)cc(OC)c3)[nH]c2-c2ccc(OC)cc2)cc1 | 2.78 µM | > 100 µM
ClCCN(CCCl)c1ccc(CNc2ccccc2)cc1 | 2.14 µM | 23.4 µM
Nc1cc(Br)c(-c2nnc(CCC(=O)c3nc4ccccc4[nH]3)o2)c(Br)c1 | 1.93 µM | 6.97 µM
c1ccc2c(c1)[nH]c1c2cc[n+]2cc3c(cc12)CCCC3 | 1.12 µM | 2.98 µM
CN(C)C(=S)SSC(=S)N(C)C | 17.1 µM | 37.5 µM
COc1cc(/C=C\c2cc(OC)c(OC)c(OC)c2)cc(N/C=C\C(=O)c2c[nH]c3ccccc23)c1OC | 1.28 µM | 3.66 µM
COc1ccc(-c2nn(-c3cccc(Cl)c3)cc2-c2cc(-c3ccccc3)[nH]c(=O)c2C#N)cc1 | 1.55 µM | 7.51 µM
Cc1cn(-c2cc(C(=O)Nc3cccc(-n4ccc5c(NC(=O)c6ccccc6)nccc54)c3)cc(C(F)(F)F)c2)cn1 | 0.229 µM | 1.04 µM
COc1cc2c(Nc3cc(Cl)c(OC)c(Cl)c3)c(C#N)cnc2cc1OCCCN1CCN(C)CC1 | 0.267 µM | 1.64 µM
N[C@H](CCC(=O)N[C@@H](Cc1c[nH]c2ccccc12)C(=O)O)C(=O)O | > 100 µM | > 100 µM
O=C(Nc1cc(Nc2ncccc2-c2ncnc3nc[nH]c23)ccc1F)c1cc(C(F)(F)F)cc(C(F)(F)F)c1 | 3 µM | 8.36 µM
CO[C@H]1Nc2c(ccc(C)c2O)C(=O)N2C=C(/C=C/C(N)=O)C[C@@H]12 | 0.0208 µM | 0.0465 µM
O=C(NNc1nc2cc(F)cc(F)c2n2cccc12)c1ncccn1 | 0.59 µM | 3.79 µM
COc1ccc(-c2ccc3c(N4CCOC[C@@H]4C)nc(N4CCOC[C@@H]4C)nc3n2)cc1CO | 0.00533 µM and 0.018 µM | 0.0199 µM and 0.195 µM
CC(C)[C@H](O)C(=O)N[C@@H](C)C(=O)N[C@@H]1C(=O)N(C)CCc2ccccc21 | > 100 µM | > 100 µM
C=CC(=O)N1CN(C(=O)C=C)CN(C(=O)C=C)C1 | 1.46 µM | 3.4 µM
COc1ccc(-c2cnnn2-c2nonc2-n2cccc2)cc1 | 0.13 µM | 0.721 µM
